We go through 14 compounds from BindingDB's records for doi:10.1111/j.1471-4159.1990.tb04946.x (Schering-Plough Research Institute, 1990).

pKi: −log10 of the molar value.

The target in this assay is Hrh3 protein (Rattus norvegicus, UniProt Q5PPG3).
Chain of Hrh3 protein (Q5PPG3 whole entry): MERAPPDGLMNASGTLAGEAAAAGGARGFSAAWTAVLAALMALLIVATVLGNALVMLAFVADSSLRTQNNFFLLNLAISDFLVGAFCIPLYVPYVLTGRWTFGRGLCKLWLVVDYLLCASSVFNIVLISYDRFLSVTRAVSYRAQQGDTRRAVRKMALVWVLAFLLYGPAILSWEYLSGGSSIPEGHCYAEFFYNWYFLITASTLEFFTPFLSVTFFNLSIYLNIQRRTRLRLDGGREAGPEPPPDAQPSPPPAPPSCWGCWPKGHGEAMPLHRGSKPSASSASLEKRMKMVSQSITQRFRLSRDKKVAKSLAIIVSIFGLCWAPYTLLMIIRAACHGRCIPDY
In general, pKi refers to the Ki on a negative log10 scale, so that one unit is a factor of ten. Turning to `S=C(NC1CCCCC1)N1CCC(c2cnc[nH]2)CC1`, the pKi was 7.80.
To `CN/C(=N/CCSCc1nc[nH]c1C)NC#N` belongs 5.10; to `CNCCc1c[nH]cn1` [N(alpha)-Methylhistamine], 9.35; to `c1c[nH]cn1`, below 5.00.
`CN/C([CH-][N+](=O)[O-])=[NH+]\CCSCc1ccc(CN(C)C)o1` gave a pKi below 5.00.
Under `CN(C)CCC(c1ccc(Cl)cc1)c1ccccn1` (centres undefined) [clorfeniramina] stands below 5.00.
To `C/N=C(\S)NCCSCc1[nH]cnc1C` [CAS_34839-70-8] belongs below 5.00; to `Cc1[nH]cnc1CSCCNC(=N)NCCCc1c[nH]cn1` [2-[3-(1H-imidazol-5-yl)propyl]-1-(2-{[(5-methyl-1H-imidazol-4-yl)methyl]sulfanyl}ethyl)guanidine], 7.34.
For the compound `CNC(=NCCSCc1csc(N=C(N)N)n1)NC#N` [[3H]tiotidine], the pKi was below 5.00.
Take `CN(C)CCCSC(=N)N` [[3-(carbamimidoylsulfanyl)propyl]dimethylamine]: the pKi was 6.36.
To `NCCc1c[nH]cn1` [[3H]histamine] belongs 7.96; to `C[C@@H](N)Cc1c[nH]cn1`, 8.92; to `COc1ccc(CN(CCN(C)C)c2ccccn2)cc1`, below 5.00.
Regarding `NC(Cc1c[nH]cn1)C(=O)O` (centres undefined) [NSC_773], the negative logarithm of the Ki (pKi) is below 5.00.
